Reference: patent publication US7902421B2, “Animal model for schizophrenia” (London Health Sciences Centre Research Inc., priority 2003, dated 2011)
“Also recorded” adds a separate entry of the source.

Assays:
[1] = system: subplate cells in the developing prefrontal cortex; experiment: Apoptosis of subplate cells after neonatal intracerebral injections of nerve growth factor (activated caspase-3 immunoreactivity); assay type: in vivo, rat; conditions: for apoptosis of subplate cells / neurons: intracerebral injections into developing prefrontal cortex of postnatal rats (250 ng/μl/site, postnatal days 3 and 4)
Procedure: Neonatal rat pups received daily injections of nerve growth factor into the developing prefrontal cortex at 2, 3 and 4 days of age (similarly other animals such as mice or monkeys can be injected at the appropriate neonatal or fetal period of prefrontal cortical development characterized by the expression of p75 receptor in subplate cells). Scalp of rat pups were sprayed with a topical anesthesia, and 1 μl of nerve growth factor ([…] in saline, human recombinant Nerve growth factor, Cedarlane Laboratories) was pressure injected with a 30 gauges needle into the developing prefrontal cortex on each side. Injections were made 1.5 mm in front of the bregma which is visible through the scalp, 0.5 mm lateral to the midline and 1.5 mm deep to the scalp surface. Injections were made slowly over 10 sec and the needle was left in situ for an additional 30 sec. Pups were kept separated from their mother for approximately 20 min during injecttion sessions. During this time they were kept warm. Control rat pups received exactly similar treatment but injected with saline. Experimental and control rats were marked with an ear punch on the right and left ears, respectively. After injection session pups were returned to their mother and allowed to grow under standard conditions.
Both neonatally nerve growth factor or saline injected rats were anesthetized with an intraperitoneal injection of sodium pentobarbital (Somnatol, 40 mg/kg) at 5 weeks or 10 weeks of age and perfused transcardially with a solution containing 4% freshly depolymerized paraformaldehyde in 0.1 M phosphate buffer at pH 7.4. Brains were removed, cryoprotected in 18% buffered-sucrose for 24 hours at 4° C., and sectioned in a freezing microtome 40 μm thick sections were processed for Nissl staining and immunohistochemistry as described previously (Rajakumar, Elisevich and Flumerfelt, Journal of Comparative Neurology 1994, 350:324-336).

[2] = system: subcortical dopamine responsivity; experiment: Behavioral testing (sniffing, locomotion, rearing) after saline or d-amphetamine challenge; assay type: in vivo, rat
Procedure: Animals at 5 or 10 weeks of age were habituated to the testing area for three hours each on 2 consecutive days. On the 3rd day, animals were habituated for an hour and then injected with saline (0.2 ml, l.p.) and their behaviors were monitored visually for an hour. They were then injected with d-amphetamine (5 mg/kg, l.p.) and their behaviors were monitored for an additional one-hour. An examiner who was blind to the animal groups performed testing. Several behavioral measures including locomotion, rearing (vertical activity), sniffing and grooming were monitored. Different cohorts of animals were used for testing at 5 and 10 weeks. For stress response, animals were submerged in water at room temperature for 5 min in a large container, then they were placed in a plexiglass box and their behaviors (similar to those described above) were visually monitored,
For novelty induced stress response, animals were subjected to novel environment or object and their motor behaviors were monitored. Behavioral data was analyzed using standard statistical methods (Rajakumar, Laurier, Niznik and Stoessi, Synapse 1997, 26: 199-208).

[3] = system: prefrontal cortex; experiment: Histological examination and immunohistochemistry of brains of neonatally injected rats; assay type: in vivo, rat
Procedure: […] Brains were removed, cryoprotected in 18% buffered-sucrose for 24 hours at 4° C., and sectioned in a freezing microtome 40 μm thick sections were processed for Nissl staining and immunohistochemistry as described previously (Rajakumar, Elisevich and Flumerfelt, Journal of Comparative Neurology 1994, 350:324-336).

[4] = target: T1, (Homo sapiens, UniProt P08138); conditions: cited from earlier work
T1 sequence (P08138 29-427): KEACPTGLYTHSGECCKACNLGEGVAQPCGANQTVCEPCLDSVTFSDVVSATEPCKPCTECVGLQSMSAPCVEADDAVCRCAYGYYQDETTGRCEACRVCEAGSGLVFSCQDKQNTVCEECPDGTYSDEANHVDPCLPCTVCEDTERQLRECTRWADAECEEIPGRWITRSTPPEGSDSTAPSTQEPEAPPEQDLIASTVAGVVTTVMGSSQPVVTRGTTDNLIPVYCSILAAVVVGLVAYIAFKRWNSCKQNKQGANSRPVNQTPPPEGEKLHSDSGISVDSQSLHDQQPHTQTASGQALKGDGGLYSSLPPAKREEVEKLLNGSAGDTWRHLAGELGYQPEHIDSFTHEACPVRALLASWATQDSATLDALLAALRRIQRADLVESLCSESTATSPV

[5] = system: dopaminergic fibers from the lower layers of the prefrontal cortex; experiment: Intracerebral stereotaxic injections of 6-hydroxydopamine eliminating dopaminergic fibers in adult rats; assay type: in vivo, rat; conditions: unpublished work by the inventor
Text: In the normal brain, dopaminergic fibers are distributed mainly in lower layers of the prefrontal cortex, Dopaminergic-fibers are abnormally distributed within the prefrontal cortex in schizophrenic patients with very low density in the lower layers (Akil, Pierri, Whitehead, Edgar, Mohila, Sampson and Lewis, American Journal of Psychiatry 1999, 156:1580-1589). […] Based on this work the inventor believed that abnormal laminar distribution of dopaminergic fibers in the prefrontal cortex may be responsible for the enhanced dopaminergic activity seen in schizophrenia. While abnormal distribution of dopaminergic fibers has been described in the prefrontal cortex in schizophrenic brains (Akil, Pierri, Whitehead, Edgar, Mohila, Sampson and Lewis, American Journal of Psychiatry 1999, 156:1580-1589), this has never implicated in the manifestation of dopaminergic hyperactivity.

[6] = at 5 weeks, saline or d-amphetamine challenge, n=30
[7] = at 10 weeks, d-amphetamine challenge, n=36
[8] = adult rat, neonatal injections, vs control
[9] = at 5 weeks, d-amphetamine 5 mg/kg i.p. vs saline, control and experimental animals

## nerve growth factor
[1]
  apoptosis of subplate cells / neurons: resulting in apoptosis of the subplate cells; also recorded: specifically induced apoptosis of subplate neurons
[1]; listed as NGF
  apoptosis of subplate cells / neurons: induces apoptosis
[1]; method of injection adopted, neonatal period
  effect on the hippocampus or other parts of the cerebral cortex: does not affect the hippocampus or any other parts of the cerebral cortex
[1]; postnatal rat brain, intracerebral injections
  mechanical, ischemic or inflammatory lesion: without causing any substantial mechanical, ischemic or inflammatory lesion
[1]; six day-old rat pup, daily intracerebral injections on postnatal days 2, 3 and 4
  immunoreactivity of activated caspase-3 in subplate cells: undergoing apoptosis
[2]; adult (after the 8th week), injections of d-amphetamine
  subcortical dopaminergic responsivity: enhanced subcortical dopamine responsivity; also recorded: increased subcortical dopaminergic responsivity
[2]; after the 8th week, neonatally injected rats
  response to changes in the environment: prolonged and enhanced response
[2]; [6]
  total duration of locomotor behavior, experimental vs control animals: no differences
  total duration of rearing behavior, experimental vs control animals: no differences
  total duration of sniffing behavior, experimental vs control animals: no differences
[2]; [7]
  total duration of locomotor behavior, experimental vs control animals: significantly increased locomotor behavior
  total duration of rearing behavior, experimental vs control animals: significantly increased rearing
[2]; at 10 weeks, saline or d-amphetamine challenge, n=36
  total duration of sniffing behavior, experimental vs control animals: no differences
[2]; until 8 weeks of age
  growth and behavioral patterns, experimental vs control rats: comparable growth and behavioral patterns
[3]; adult rat, control vs NGF-treated
  parvalbumin neuronal number in the prefrontal cortex: comparable
[3]; [8]
  GABA transporter-1 immunoreactive synapses in the prefrontal cortex: fewer; also recorded: markedly diminished
  density of tyrosine hydroxylase labeled (dopaminergic) fibers in lower layers of the prefrontal cortex: considerably decreased; also recorded: decreased density
  laminar distribution of parvalbumin immunoreactive terminals in the prefrontal cortex: altered laminar distribution of parvalbumin immunoreactive terminals
[3]; adult rat, neonatal injections, vs control, listed as NGF
  GABA transporter-1 immunoreactive synapses in the prefrontal cortex: markedly diminished
[3]; adult rat, neonatal injections, vs control, listed as Nerve growth factor
  density of tyrosine hydroxylase labeled (dopaminergic) fibers in lower layers of the prefrontal cortex: decreased dopaminergic fibers
[3]; histological examination of neonatally injected rats
  gross structure throughout the brain: apparently normal gross structure
[3]; injected animals as adults
  laminar distribution of GABAergic terminals in the prefrontal cortex: altered laminar distribution
[3]; neonatally injected rats in comparison to control animals
  lateral and third ventricular size: moderately enlarged; also recorded: relatively larger
[3]; rat sacrificed at 6 months of age, neonatal injections, vs control
  volume of lateral ventricles: increased considerably

## C[C@H](N)Cc1ccccc1 [d-amphetamine, reference compound]
[2]; [9]
  effect of amphetamine injection on sniffing: increases sniffing in both groups of animals
  effect of amphetamine injection on total duration of locomotion: increases the total duration of locomotion in both groups of animals
[2]; at 10 weeks, d-amphetamine 5 mg/kg i.p. vs saline, control and experimental animals
  effect of amphetamine injection on sniffing: increases sniffing in both groups of animals

## Pro-nerve growth factor
[4]
  increased affinity for p76 receptors: > 1000 fold

## NCCc1cc(O)c(O)cc1O [6-hydroxydopamine]
[5]
  subcortical dopaminergic activity to systemic injections of amphetamine: markedly enhanced subcortical dopaminergic activity
